From ChEMBL document CHEMBL1143510, “Synthesis and in vitro antitumor activity of 4(3H)-quinazolinone derivatives with dithiocarbamate side chains” (Bioorg Med Chem Lett, 2005) come the findings set out here.

The test system of this assay is K562. As to the kind of experiment: In vitro cytotoxic concentration measured against human myelogenous leukemia K562 cells. Format: functional, cell-based.
Usually IC50 stands for the concentration needed to halve the response being measured. Read a low IC50 as higher potency. For the compound `Cc1nc(O)c2cc(CSC(=S)N3CCCCC3)ccc2n1`, the 50% inhibitory concentration (IC50) amounted to 11.3 µM.
Consider `Cc1nc(O)c2cc(CS/C(S)=N/C3CCCCC3)ccc2n1`, for which the half-maximal inhibitory concentration (IC50) was determined as 31 µM.
`Cc1nc(O)c2cc(CSC(=S)N3CCN(C(c4ccc(F)cc4)c4ccc(F)cc4)CC3)ccc2n1` had an IC50 of 4.3 µM.
With `CCN(CC)C(=S)SCc1ccc2nc(C)nc(O)c2c1` the figure was 4.4 µM; with `Cc1nc(O)c2cc(CS/C(S)=N/Cc3ccco3)ccc2n1`, 2.1 µM.
In turn, `Cc1nc(O)c2cc(CSC(=S)N3CCOCC3)ccc2n1` displayed a half-inhibitory concentration (IC50) of 7.2 µM.
The result for `CCOC(=O)C1(c2ccccc2)CCN(C(=S)SCc2ccc3nc(C)nc(O)c3c2)CC1` reads 8.7 µM.
Compound `Cc1nc(O)c2cc(CS/C(S)=N/Cc3ccccc3)ccc2n1` displayed a half-inhibitory concentration (IC50) of 4 µM.
Compound `Cc1nc(O)c2cc(CSC(=S)N3CCN(C)CC3)ccc2n1` returned a half-inhibitory concentration (IC50) of 10.8 µM.
Compound `Cc1nc(O)c2cc(CSC(=S)N3CC(C)OC(C)C3)ccc2n1` (centres undefined) came in with an IC50 of 3.7 µM.
The result for `Cc1nc(O)c2cc(CSC(=S)N3CCN(c4ccc(F)cc4)CC3)ccc2n1` reads 0.5 µM; that for `Cc1nc(O)c2cc(CSC(=S)N3CCN(Cc4ccccc4)CC3)ccc2n1`, 7.4 µM; that for `CSC(=S)NCc1c[nH]c2ccccc12` [BRASSININ], 128 µM.
The compound `Cc1nc(O)c2cc(CSC(=S)N3CCc4ccccc4C3)ccc2n1` came in with an IC50 of 3.3 µM.
With `Cc1nc(O)c2cc(CSC(=S)N(C3CCCCC3)C3CCCCC3)ccc2n1`, the IC50 is 7.6 µM.
With `Cc1nc(O)c2cc(CS/C(S)=N/CCCN(C)C)ccc2n1` the figure was 25.6 µM; with `CCOC(=O)C1CSCN1C(=S)SCc1ccc2nc(C)nc(O)c2c1` (centres undefined), 11 µM.
With `Cc1nc(O)c2cc(CS/C(S)=N/C34CC5CC(CC(C5)C3)C4)ccc2n1` the figure was 30.6 µM; with `CN(Cc1cnc2nc(N)nc(N)c2n1)c1ccc(C(=O)N[C@@H](CCC(=O)O)C(=O)O)cc1` [METHOTREXATE], 419 µM.
